Values after ≈ are worked out from the molar mass of the structure shown.
Columns and labels:
Solubility in water = assay type: physicochemical; details: pH=6.5
Description: (§1) These compounds are molecules that are very sparingly soluble in water, respectively: 0.1 μg/ml and 1 μg/l at pH=6.5. Furthermore, these compounds have high membrane permeability coefficients: respectively, 78×10^−7 cm/s and 96×10^−7 cm/s on the CaCO2 cell model, as described by M. C. Gres et al. in Pharmaceutical Research, […], 15(5), 726-7333.

[1] = Membrane permeability coefficient on the CaCO2 cell model; assay type: in vitro ADME; details: human, Caco-2
Description: as §1

solubility (Solubility in water) [µg/mL] | Papp [1] [×10⁻⁶ cm/s] | Structure (SMILES)
0.1 (≈ 0.191 µM) | 7.8 | CCc1c(C(=O)NN2CCCCC2)nn(-c2ccc(Cl)cc2Cl)c1-c1ccc(Br)cc1 [Compound A, N-Piperidino-5-(4-bromophenyl)-1-(2,4-dichlorophenyl)-4-ethylpyrazole-3-carboxamide]
– | 9.6 | Cc1c(C(=O)NN2CCCCC2)nn(-c2ccc(Cl)cc2Cl)c1-c1ccc(Cl)cc1 [Compound B, N-Piperidino-5-(4-chlorophenyl)-1-(2,4-dichlorophenyl)-4-methylpyrazole-3-carboxamide, reference compound]
